Consider 20 compounds from patent publication US20080118591A1, “Bactericidal Formulations” (priority 2004, published 2008).

The subject of one data set is Pseudomonas aeruginosa. In words: Rapid bactericidal activity of liquid wash formulations. The data set is classed as cell-based. The protocol:
The above formulations are supplemented with 0.9% (w/v) of the perfume composition A of example 2. A control of each formulation is left un-perfumed. The rapid bactericidal activity of these formulations is then tested as follows: • The products are diluted 1:1 in hard water as defined in the European standard EN 1276. This mimics conditions of use on wet hands or wet surfaces in commonly used water. • 500 μl of the product is mixed with 25 μl of a bacterial inoculum containing 2×10^8 cfu/ml (colony forming units). • The mixture is incubated for 30 seconds at 37° C. • 20 μl of the mixture is removed and added to 180 μl neutralising solution (containing 3 g lecithin, 30 g Tween® 80, 5 g sodium thiosulfate, 1 g histidine, 30 g saponin, 8.5 g sodium chloride, 1 g tryptone and 1000 ml water). • The mixture with neutraliser is incubated for 1 min • Serial dilutions of the mixture with neutralising solution are made, and aliquots of these are added to Petri-dishes and embedded in tryptic soy agar containing 0.5% Tween® 80 to inactivate any residual antibacterial compounds. • Bacterial numbers are counted after 24 h incubation at 37° C. and compared to control samples. • Reduction in bacterial viability is determined as described in example 1
The resulting formulations are tested in a 1:1 dilution for their rapid bactericidal effects after 30 seconds for Pseudomonas aeruginosa.
Formulation IVg is supplemented as indicated in the table below with various different chelating agents instead of EDTA and is tested as described in example 5a. The resulting products are tested with 30 s contact time at a 1:1 dilution for bactericidal effects on P. aeruginosa.

In a further data set the test system is gram-negative bacteria. Kind of data set: Rapid bactericidal effect of perfume ingredients (example 1, Mueller-Hinton broth, most probable number method). The data set is classed as cell-based. The settings on record: for rapid (30 s) bactericidal activity on gram-negative bacteria (class): 30 s contact time, 0.1% or 0.2% (w/v) in Mueller-Hinton broth. The protocol: A sufficiently rapid bactericidal activity of a perfume ingredient against gram-negative bacteria according to the invention is determined as follows. The perfume ingredient must have a reduction factor of bacterial viability of at least 20-fold when it is tested in a concentration of 0.2% in Mueller Hinton Broth with a contact time of 30 seconds as described below. The perfume ingredient is dissolved in dimethylsulfoxide (DMSO) in a concentration of 4% (w/v). An aliquot (10 μl) of the solution is added to individual wells of microtiter plates.
200 μl of Mueller-Hinton broth containing a bacterial inoculum of 2.5×10^6 cfu (colony forming units) is added. After 30 s contact time, 20 μl of the test solution is removed and added to 180 μl of a neutralising solution (containing 3 g lecithin, 30 g Tween® 80, 5 g sodium thiosulfate, 1 g histidine, 30 g saponin, 8.5 g sodium chloride, 1 g tryptone and 1000 ml water). After 1 min incubation, the sample is serially diluted 1:1 in Micotiter-plates containing 100 μl Mueller-Hinton Broth per well, and then incubated for 24 h at 37° C. The maximal dilution showing bacterial growth is recorded to determine the number of surviving bacteria (so-called most probable number method, which is a well-known microbiological method), and results are compared to control samples without added perfumery chemicals. Reduction in bacterial viability is thus calculated by dividing numbers of bacteria in control samples by the number surviving in the treated samples. […].
Test organisms Escherichia coli (ATCC 10536), Salmonella typhimurium (ATCC 13311) and Pseudomonas aeruginosa (ATCC 15442) are used. For Pseudomonas aeruginosa the test solution contains additionally 0.1% EDTA.
A large number of commercially-available materials including a collection of 900 perfumery chemicals is tested. The materials are dissolved in dimethylsulfoxide (DMSO) in a concentration of 4% (w/v). An aliquot (5 μl or 10 μl) of each solution is added to individual wells of microtiter plates. 200 μl of Mueller-Hinton broth containing a bacterial inoculum of 2.5×10^6 cfu (colony forming units) is added. After 30 s and 60 s contact time, 20 μl of the test solution is removed and added to 180 μl of a neutralising solution (containing 3 g lecithin, 30 g Tween® 80, 5 g sodium thiosulfate, 1 g histidine, 30 g saponin, 8.5 g sodium chloride, 1 g tryptone and 1000 ml water). After 1 min incubation, the samples are serially diluted 1:1 in Micotiter-plates containing 100 μl Mueller-Hinton Broth per well, and then incubated for 24 h at 37° C. The maximal dilution showing bacterial growth is recorded to determine the number of surviving bacteria (so-called most probable number method, which is a well-known microbiological method), and results are compared to control samples without added perfumery chemicals. Reduction in bacterial viability is thus calculated by dividing numbers of bacteria in control samples by the number surviving in the treated samples.

Data set [1] is described as follows: Pyrene 1:3 ratio (I373/I384) for micelle formation. The data set is classed as physicochemical. The protocol:
To 100 μl of each dilution, 5 μl of a pyrene solution (0.4 mM in ethanol) is added. After equilibration, the fluorescence of the solution with an excitation at 335 nm is determined.
To 100 μl of each dilution, 5 μl of a pyrene solution (0.4 mM in ethanol) is added. After equilibration, the fluorescence of the solution with an excitation at 335 nm is determined on an LS-50 Perkin Elmer fluorescence spectrometer.

Setting [2] is: chelating agent added to formulation instead of EDTA, 1:1, 30 s.

Like-named read-outs stand apart in the source and are kept apart here.

As for `O=C(O)CN(CC(=O)O)[C@@H]1CCCC[C@H]1N(CC(=O)O)CC(=O)O` (relative stereo) [CDTA, trans 1,2-diaminocyclohexane-N,N,N′N′-tetraacetic acid], the “effect of the chelating agent on rapid activity of the formulation against Pseudomonas aeruginosa (in words)” value (“effect of the chelating agent” for short) in the data set with Pseudomonas aeruginosa is on record as “further improves the effectiveness”.

With `CC(O)(P(=O)(O)O)P(=O)(O)O` [1-hydroxyethylidene-1,1-phosphonic acid], the “effect of the chelating agent” value with Pseudomonas aeruginosa is reported as “not able to provide this improved activity”.

Turning to `O=P(O)(O)CN(CP(=O)(O)O)CP(=O)(O)O` [Aminotri (methylene-phosponic acid)], the “effect of the chelating agent” value in the data set with Pseudomonas aeruginosa (setting [2]) is on record as “not able to provide this improved activity”.

Turning to `O=C(O)CN(CCN(CC(=O)O)CC(=O)O)CCN(CC(=O)O)CC(=O)O` [DTPA, di-ethylen-triamine-penta-acetate], in the data set with Pseudomonas aeruginosa (setting [2]), the “effect of the chelating agent” value is on record as “not able to provide this improved activity”.

Turning to `O=C(O)C[C@H](NCCN[C@@H](CC(=O)O)C(=O)O)C(=O)O` [EDDS, ethylendiaminedisuccinic acid], in the data set on Pseudomonas aeruginosa (setting [2]), the “effect of the chelating agent” value is “not able to provide this improved activity”.

With `CC(C)=CCC/C(C)=C/COC=O` [Geranyl-formiate], in the data set on gram-negative bacteria, the “antibacterial effect in formulations according to the present invention (in words)” value (“antibacterial effect” below) was “do not provide a sufficient antibacterial effect” and the “rapid (30 s) bactericidal activity on gram-negative bacteria (class)” value (from here on “rapid (30 s) bactericidal activity”) is “without activity”.

As to `CCC(=O)OC/C=C(\C)CCC=C(C)C` [Geranyl-propionate], in the data set on gram-negative bacteria, the “antibacterial effect” value was “do not provide a sufficient antibacterial effect” and the “rapid (30 s) bactericidal activity” value is listed as “without activity”.

With `O=C(O)CC(NC(CC(=O)O)C(=O)O)C(=O)O` (stereo not drawn) [IDS, iminodisuccinic acid], the “effect of the chelating agent” value in the data set with Pseudomonas aeruginosa (setting [2]) is listed as “not able to provide this improved activity”.

With `O=C(O)CN(CC(=O)O)CC(=O)O` [NTA, nitrilotriacetic acid], the “effect of the chelating agent” value with Pseudomonas aeruginosa (setting [2]) is reported as “not able to provide this improved activity”.

Take `CCCCCCCCCCCCOS(=O)(=O)[O-].[Na+]` [Sodium dodecylsulfate]: the “ratio (I373)/(I384) (pyrene 1:3 ratio)” value in data set [1] (CONC 0.01% in water) came to 1.11; in data set [1] (CONC 0.02% in water), 1.12; in data set [1] (CONC 0.04% in water), 1.08; in data set [1] (CONC 0.08% in water) it was 0.92; in data set [1] (CONC 0.16% in water), 0.78; in data set [1] (CONC 0.31% in water), 0.79. For the same compound, the “ratio (I373)/(I384) (pyrene 1:3 ratio)” value turned out to be 0.75 in data set [1] (CONC 0.63% in water) and 0.74 in data set [1] (CONC 1.25% in water).

As to `CC(=O)OCCC(C)CCC=C(C)C` (stereo not drawn) [citronellyl-actetate], in the data set with gram-negative bacteria, the “antibacterial effect” value is “do not provide a sufficient antibacterial effect” and the “rapid (30 s) bactericidal activity” value was “without activity”.

Consider `CC(C)=CCCC(C)CCOC=O` (stereo not drawn) [citronellyl-formiate], for which, in the data set with gram-negative bacteria, the “antibacterial effect” value was “do not provide a sufficient antibacterial effect” and the “rapid (30 s) bactericidal activity” value is “without activity”.

As for `CCC(=O)OCCC(C)CCC=C(C)C` (stereo not drawn) [citronellyl-propionate], in the data set on gram-negative bacteria, the “antibacterial effect” value was “do not provide a sufficient antibacterial effect” and the “rapid (30 s) bactericidal activity” value is “without activity”.

`C=CC(C)(CCC=C(C)C)OC=O` (stereo not drawn) [linalyl-formiate]: in the data set with gram-negative bacteria, the “antibacterial effect” value is “do not provide a sufficient antibacterial effect” and the “rapid (30 s) bactericidal activity” value was “without activity”.

With `C=CC(C)(CCC=C(C)C)OC(=O)CC` (stereo not drawn) [linalyl-propionate], in the data set with gram-negative bacteria, the “antibacterial effect” value is listed as “do not provide a sufficient antibacterial effect” and the “rapid (30 s) bactericidal activity” value is on record as “without activity”.

On to `CC(C)=CCC/C(C)=C\COC=O` [neryl-formiate], for which, in the data set with gram-negative bacteria, the “antibacterial effect” value was “do not provide a sufficient antibacterial effect” and the “rapid (30 s) bactericidal activity” value is listed as “without activity”.

`CCC(=O)OC/C=C(/C)CCC=C(C)C` [neryl-propionate]: in the data set on gram-negative bacteria, the “antibacterial effect” value was “do not provide a sufficient antibacterial effect” and the “rapid (30 s) bactericidal activity” value is recorded as “without activity”.

Consider Cocoamidopropylbetaine, for which the “ratio (I373)/(I384) (pyrene 1:3 ratio)” value is 1.19 in data set [1] (CONC 0.01% in water); 1.02 in data set [1] (CONC 0.02% in water); 0.87 in data set [1] (CONC 0.04% in water); 0.80 in data set [1] (CONC 0.08% in water); 0.80 in data set [1] (CONC 0.16% in water); 0.78 in data set [1] (CONC 0.31% in water). Further, the results for the “ratio (I373)/(I384) (pyrene 1:3 ratio)” value in data set [1] (CONC 0.63% in water) and in data set [1] (CONC 1.25% in water) were 0.79 and 0.78, respectively.

In the case of Diisopropyl-sulfosuccinate, the “ratio (I373)/(I384) (pyrene 1:3 ratio)” value came out at 1.21 in data set [1] (CONC 0.01% in water); 1.21 in data set [1] (CONC 0.02% in water); 1.20 in data set [1] (CONC 0.04% in water); 1.36 in data set [1] (CONC 0.08% in water); 1.99 in data set [1] (CONC 0.16% in water); 1.65 in data set [1] (CONC 0.31% in water). For the same compound, the “ratio (I373)/(I384) (pyrene 1:3 ratio)” value was found to be 1.48 in data set [1] (CONC 0.63% in water) and 1.39 in data set [1] (CONC 1.25% in water).

As to Sodium xylene sulfonate, the “ratio (I373)/(I384) (pyrene 1:3 ratio)” value in data set [1] (CONC 0.01% in water) stood at 1.37; in data set [1] (CONC 0.02% in water), 1.46; in data set [1] (CONC 0.04% in water), 2.84; in data set [1] (CONC 0.08% in water) it was 1.62; in data set [1] (CONC 0.16% in water), 1.49; in data set [1] (CONC 0.31% in water), 1.43. Further, the “ratio (I373)/(I384) (pyrene 1:3 ratio)” value in data set [1] (CONC 0.63% in water) worked out at 1.41; in data set [1] (CONC 1.25% in water), 1.04.
